In assay [1] the target is T1, SyCsx1 (Synechocystis sp. PCC 6803, UniProt Q6ZED7).
T1 construct: gene slr7061; full-length, His-tagged (pQE-80), E. coli BL21(DE3); about 89 kDa by SEC, dimer; encoded on plasmid pSYSA, CRISPR2 (III-D) locus
T1 sequence (Q6ZED7 1-422): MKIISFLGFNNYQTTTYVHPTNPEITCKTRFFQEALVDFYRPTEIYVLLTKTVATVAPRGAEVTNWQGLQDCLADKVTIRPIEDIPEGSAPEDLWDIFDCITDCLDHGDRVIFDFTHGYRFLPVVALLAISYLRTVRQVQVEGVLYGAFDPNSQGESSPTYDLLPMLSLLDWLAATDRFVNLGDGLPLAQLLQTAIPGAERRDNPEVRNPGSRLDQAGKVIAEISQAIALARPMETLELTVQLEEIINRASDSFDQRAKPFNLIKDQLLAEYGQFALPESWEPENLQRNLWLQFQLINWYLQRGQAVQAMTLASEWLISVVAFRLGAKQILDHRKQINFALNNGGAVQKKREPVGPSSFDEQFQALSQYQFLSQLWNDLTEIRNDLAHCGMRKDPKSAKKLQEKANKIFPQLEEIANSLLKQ
As to the kind of experiment: fluorogenic RNaseAlert cleavage; gel-based RNA cleavage. It is filed as biochemical. The note with it: allosteric activator binding the CARF domain; 300 nM cA4, 300 nM SyCsx1, 40 nM RNaseAlert substrate, 50 mM HEPES pH 7.5, 50 mM KCl, 1 mM DTT, 30 °C.

The target of assay [2] is T2, SyCsm6 (Synechocystis sp. PCC 6803, UniProt Q6ZED6).
T2 construct: gene sll7062; full-length, His-tagged (pQE-80), E. coli BL21(DE3); encoded on plasmid pSYSA, CRISPR2 (III-D) locus
T2 sequence (Q6ZED6 1-371): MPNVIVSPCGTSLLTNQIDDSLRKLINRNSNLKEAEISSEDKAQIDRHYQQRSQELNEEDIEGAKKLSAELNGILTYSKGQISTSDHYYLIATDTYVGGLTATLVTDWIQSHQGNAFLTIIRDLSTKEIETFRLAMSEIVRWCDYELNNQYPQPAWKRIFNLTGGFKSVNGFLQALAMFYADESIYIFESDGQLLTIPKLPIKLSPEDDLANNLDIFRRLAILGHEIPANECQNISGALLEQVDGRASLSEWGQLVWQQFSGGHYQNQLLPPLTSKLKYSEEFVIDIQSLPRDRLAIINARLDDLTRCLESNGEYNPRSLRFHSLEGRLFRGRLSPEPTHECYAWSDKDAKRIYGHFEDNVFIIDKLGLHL
Kind of assay: LC-MS of cOA degradation products; coupled SyCsx1 activation assay. It is filed as biochemical. The following applies: ring nuclease; 667 nM cA4, 2 µM SyCsm6, 30 °C, 2 h.

In assay [3] the target is T2, SyCsm6. Kind of assay: LC-MS of cOA degradation products. It counts as biochemical. The note with it: ring nuclease; 667 nM cA6, 2 µM SyCsm6, 30 °C, 2 h.
Assay [4] deals with T1, SyCsx1. As to the kind of experiment: fluorogenic RNaseAlert cleavage. The following applies: activator; cFA4 preincubated at 20 nM (mock or with SyCsm6), then 300 nM SyCsx1, 20 nM RNaseAlert substrate, 30 °C. It counts as biochemical.
Assay [5] has as its target SyCsm6 (Csm6 homolog of the Synechocystis sp. PCC 6803 CRISPR2 type III-D system) (Synechocystis sp. PCC 6803). As to the kind of experiment: SEC; Superdex 200 10/300 column in 50 mM Tris pH 8.0, 150 mM NaCl, 5% glycerol; elution volume compared with the monomer's mass; monomer to dimer. (In general: Size exclusion chromatography separates by hydrodynamic size, large species first.)

Assay [6] addresses SyCsx1 (Csx1 homolog of the Synechocystis sp. PCC 6803 CRISPR2 type III-D system) (Synechocystis sp. PCC 6803). Described as above.

One may read the stoichiometry N as a count of units in the complex or per binding partner.

For `Nc1ncnc2c1ncn2[C@@H]1O[C@@H]2COP(=O)(O)O[C@H]3[C@@H](O)[C@H](n4cnc5c(N)ncnc54)O[C@@H]3COP(=O)(O)O[C@H]3[C@@H](O)[C@H](n4cnc5c(N)ncnc54)O[C@@H]3COP(=O)(O)O[C@H]3[C@@H](O)[C@H](n4cnc5c(N)ncnc54)O[C@@H]3COP(=O)(O)O[C@H]2[C@H]1O` [cA4], the “fluorogenic RNaseAlert cleavage; gel-based RNA cleavage” value at SyCsx1 [1] is “the addition of cA4 leads to a significant increase of the fluorescence signal”. Further, the “LC-MS of cOA degradation products; coupled SyCsx1 activation assay” value on SyCsm6 [2] is “the substrate peak was gone and cA4 was converted to a product”. `Nc1ncnc2c1ncn2[C@@H]1O[C@@H]2COP(=O)(O)O[C@H]3[C@@H](O)[C@H](n4cnc5c(N)ncnc54)O[C@@H]3COP(=O)(O)O[C@H]3[C@@H](O)[C@H](n4cnc5c(N)ncnc54)O[C@@H]3COP(=O)(O)O[C@H]3[C@@H](O)[C@H](n4cnc5c(N)ncnc54)O[C@@H]3COP(=O)(O)O[C@H]3[C@@H](O)[C@H](n4cnc5c(N)ncnc54)O[C@@H]3COP(=O)(O)O[C@H]3[C@@H](O)[C@H](n4cnc5c(N)ncnc54)O[C@@H]3COP(=O)(O)O[C@H]2[C@H]1O` [cA6]: the “LC-MS of cOA degradation products” value at SyCsm6 [3] was “cA6 was cleaved to A2 > P and an additional product”. `Nc1ncnc2c1ncn2[C@@H]1O[C@@H]2COP(=O)(O)O[C@H]3[C@@H](F)[C@H](n4cnc5c(N)ncnc54)O[C@@H]3COP(=O)(O)O[C@H]3[C@@H](F)[C@H](n4cnc5c(N)ncnc54)O[C@@H]3COP(=O)(O)O[C@H]3[C@@H](F)[C@H](n4cnc5c(N)ncnc54)O[C@@H]3COP(=O)(O)O[C@H]2[C@H]1F` [cFA4]: the “fluorogenic RNaseAlert cleavage” value at SyCsx1 [4] is “cFA4 is a less potent activator of SyCsx1 as seen by the slower substrate turnover”. Consider “SyCsm6 (Csm6 homolog of the Synechocystis sp. PCC 6803 CRISPR2 type III-D system) (enzyme)”, for which the stoichiometry N in assay [5] came out at 2. “SyCsx1 (Csx1 homolog of the Synechocystis sp. PCC 6803 CRISPR2 type III-D system) (enzyme)” came in with a stoichiometry N in assay [6] of 2.

The values are drawn from paper PMC9676260, “Enzymatic properties of CARF-domain proteins in Synechocystis sp. PCC 6803” (Frontiers in Microbiology, 2022).
